{"source": "patent US10544143B2", "about": "“4-azaindole compounds” (BRISTOL-MYERS SQUIBB COMPANY, priority 2017, dated 2020)", "key": {"human TLR9": {"target": "human TLR9 (Homo sapiens (Human), UniProt Q9NR96)", "sequence (Q9NR96 26-1032)": "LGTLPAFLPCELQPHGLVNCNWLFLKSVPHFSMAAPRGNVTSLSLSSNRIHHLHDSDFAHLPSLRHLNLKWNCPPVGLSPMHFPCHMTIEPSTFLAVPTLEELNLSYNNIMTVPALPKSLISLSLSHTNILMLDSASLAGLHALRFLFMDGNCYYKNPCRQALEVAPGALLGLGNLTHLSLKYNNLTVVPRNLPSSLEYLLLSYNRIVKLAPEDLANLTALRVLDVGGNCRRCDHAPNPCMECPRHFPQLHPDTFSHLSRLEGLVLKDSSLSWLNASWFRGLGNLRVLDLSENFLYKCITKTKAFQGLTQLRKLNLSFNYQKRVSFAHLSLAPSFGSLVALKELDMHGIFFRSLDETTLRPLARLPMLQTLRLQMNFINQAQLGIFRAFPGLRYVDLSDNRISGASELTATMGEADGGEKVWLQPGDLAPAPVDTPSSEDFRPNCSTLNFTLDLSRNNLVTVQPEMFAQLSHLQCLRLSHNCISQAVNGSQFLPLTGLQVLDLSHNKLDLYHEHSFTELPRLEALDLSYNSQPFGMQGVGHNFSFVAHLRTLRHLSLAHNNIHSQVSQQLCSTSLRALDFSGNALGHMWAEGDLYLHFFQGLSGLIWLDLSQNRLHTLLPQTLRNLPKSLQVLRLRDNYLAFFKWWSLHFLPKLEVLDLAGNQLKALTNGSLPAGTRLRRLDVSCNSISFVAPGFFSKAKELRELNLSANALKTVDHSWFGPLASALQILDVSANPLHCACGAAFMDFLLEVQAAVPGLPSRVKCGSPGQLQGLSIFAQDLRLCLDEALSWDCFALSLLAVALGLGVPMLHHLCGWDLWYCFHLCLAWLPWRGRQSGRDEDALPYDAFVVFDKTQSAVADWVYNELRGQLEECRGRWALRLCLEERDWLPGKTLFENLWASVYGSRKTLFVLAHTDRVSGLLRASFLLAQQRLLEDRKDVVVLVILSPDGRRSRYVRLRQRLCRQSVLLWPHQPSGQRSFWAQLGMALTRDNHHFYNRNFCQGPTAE", "experiment": "TLR9 inhibition reporter assay (HEK-Blue SEAP);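 for all read-outs here: SEAP driven by an IFN-β minimal promoter with NF-κB and AP-1 sites, read after 22 h, compounds dosed 0.05 nM–50 µM, inhibition scaled between agonist plus DMSO and reference-inhibitor wells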", "details": "read-out: TLR9 IC50"}, "TLR7": {"target": "TLR7 (Mus musculus (Mouse), UniProt P58681)", "sequence (P58681 27-1050)": "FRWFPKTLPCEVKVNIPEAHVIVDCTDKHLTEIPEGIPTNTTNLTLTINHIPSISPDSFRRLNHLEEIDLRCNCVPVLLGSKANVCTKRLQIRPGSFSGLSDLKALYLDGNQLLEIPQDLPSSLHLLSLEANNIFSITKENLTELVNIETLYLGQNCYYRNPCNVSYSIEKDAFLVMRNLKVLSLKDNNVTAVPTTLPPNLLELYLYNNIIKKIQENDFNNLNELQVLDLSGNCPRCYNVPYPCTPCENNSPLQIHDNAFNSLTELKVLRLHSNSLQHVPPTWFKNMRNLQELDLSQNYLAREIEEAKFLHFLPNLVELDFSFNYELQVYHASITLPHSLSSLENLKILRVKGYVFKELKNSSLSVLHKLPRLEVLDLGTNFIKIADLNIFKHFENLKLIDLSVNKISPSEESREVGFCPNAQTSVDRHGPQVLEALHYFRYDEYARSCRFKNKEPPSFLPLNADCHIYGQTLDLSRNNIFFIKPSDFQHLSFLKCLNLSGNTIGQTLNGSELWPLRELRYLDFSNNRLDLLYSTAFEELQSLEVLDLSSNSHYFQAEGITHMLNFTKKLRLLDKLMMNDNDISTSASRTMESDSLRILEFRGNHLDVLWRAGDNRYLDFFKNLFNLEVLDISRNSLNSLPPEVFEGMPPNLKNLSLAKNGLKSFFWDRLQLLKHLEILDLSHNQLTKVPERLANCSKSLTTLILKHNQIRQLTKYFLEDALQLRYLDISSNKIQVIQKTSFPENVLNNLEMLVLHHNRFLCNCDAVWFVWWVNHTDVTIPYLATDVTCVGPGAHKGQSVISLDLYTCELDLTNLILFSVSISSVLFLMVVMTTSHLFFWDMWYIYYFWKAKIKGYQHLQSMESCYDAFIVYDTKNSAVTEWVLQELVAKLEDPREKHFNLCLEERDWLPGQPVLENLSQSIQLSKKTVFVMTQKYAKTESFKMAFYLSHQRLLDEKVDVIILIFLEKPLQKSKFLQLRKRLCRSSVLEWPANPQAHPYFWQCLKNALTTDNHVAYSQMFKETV", "experiment": "In vivo mouse TLR7 PD model (gardiquimod challenge, plasma IL-6 and IFN-alpha)", "details": "C57BL/6 mice, plasma 90 min after gardiquimod i.p., vs vehicle", "method": "In Vivo Mouse TLR7 PD Model:\nAdult male C57BL/6 mice were used for the experiments. Mice (7 to 10 per group) were randomized into different treatment groups based on body weight. Mice from the respective treatment groups were administered orally with vehicle or test compound. Thirty min after the oral administration of vehicle or test compound, mice were challenged with intraperitoneal injection of gardiquimod for TLR7 PD model. Ninety minutes after gardiquimod injection, mice were bled under isoflurane anaesthesia and plasma IL-6 and IFN-alpha levels were estimated by using commercially available ELISA kit (BD Biosciences, PBL Life Sciences). At the end of experiment, mean cytokine data was plotted and one way ANOVA with Dunnett's test was performed to calculate the significance of test compound treated group vs. vehicle control group. Percent inhibition of cytokine induction was calculated for test compound treated group vs vehicle control group."}, "human TLR8": {"target": "human TLR8 (Homo sapiens (Human), UniProt Q9NR97)", "sequence (Q9NR97 27-1041)": "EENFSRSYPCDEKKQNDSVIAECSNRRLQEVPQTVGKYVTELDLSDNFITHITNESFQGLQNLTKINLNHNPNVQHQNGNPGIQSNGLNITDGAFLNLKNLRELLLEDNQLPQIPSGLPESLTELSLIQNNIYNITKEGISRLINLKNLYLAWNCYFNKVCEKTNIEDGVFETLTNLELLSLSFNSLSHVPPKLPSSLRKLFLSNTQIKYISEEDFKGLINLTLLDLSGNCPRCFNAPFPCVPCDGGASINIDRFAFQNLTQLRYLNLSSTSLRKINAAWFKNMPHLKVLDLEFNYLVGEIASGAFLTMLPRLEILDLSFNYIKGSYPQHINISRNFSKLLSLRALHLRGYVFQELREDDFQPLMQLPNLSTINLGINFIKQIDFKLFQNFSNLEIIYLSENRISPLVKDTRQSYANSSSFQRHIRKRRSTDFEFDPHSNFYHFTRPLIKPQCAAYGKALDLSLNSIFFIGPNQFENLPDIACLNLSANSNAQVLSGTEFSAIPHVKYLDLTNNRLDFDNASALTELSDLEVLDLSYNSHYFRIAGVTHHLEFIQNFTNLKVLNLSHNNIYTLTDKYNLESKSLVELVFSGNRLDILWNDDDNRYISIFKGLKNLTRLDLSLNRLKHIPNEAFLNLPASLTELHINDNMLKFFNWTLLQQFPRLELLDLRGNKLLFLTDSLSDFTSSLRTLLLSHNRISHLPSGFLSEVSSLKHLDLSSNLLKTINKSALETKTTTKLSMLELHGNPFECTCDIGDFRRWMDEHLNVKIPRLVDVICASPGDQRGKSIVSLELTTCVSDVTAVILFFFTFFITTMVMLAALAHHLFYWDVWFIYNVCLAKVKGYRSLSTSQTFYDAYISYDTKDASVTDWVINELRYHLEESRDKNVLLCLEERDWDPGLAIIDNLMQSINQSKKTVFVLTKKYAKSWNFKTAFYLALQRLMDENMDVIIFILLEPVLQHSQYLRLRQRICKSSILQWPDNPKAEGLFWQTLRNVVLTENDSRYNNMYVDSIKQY", "experiment": "TLR8 inhibition reporter assay (HEK-Blue SEAP);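 for all read-outs here: SEAP driven by IFN-β minimal promoter carrying NF-κB and AP-1 sites, compounds dosed 0.05 nM to 50 µM for 22 h, inhibition scaled between agonist-plus-DMSO and reference-inhibitor wells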", "details": "read-out: TLR8 IC50"}, "human TLR7": {"target": "human TLR7 (Homo sapiens (Human), UniProt Q9NYK1)", "sequence (Q9NYK1 27-1049)": "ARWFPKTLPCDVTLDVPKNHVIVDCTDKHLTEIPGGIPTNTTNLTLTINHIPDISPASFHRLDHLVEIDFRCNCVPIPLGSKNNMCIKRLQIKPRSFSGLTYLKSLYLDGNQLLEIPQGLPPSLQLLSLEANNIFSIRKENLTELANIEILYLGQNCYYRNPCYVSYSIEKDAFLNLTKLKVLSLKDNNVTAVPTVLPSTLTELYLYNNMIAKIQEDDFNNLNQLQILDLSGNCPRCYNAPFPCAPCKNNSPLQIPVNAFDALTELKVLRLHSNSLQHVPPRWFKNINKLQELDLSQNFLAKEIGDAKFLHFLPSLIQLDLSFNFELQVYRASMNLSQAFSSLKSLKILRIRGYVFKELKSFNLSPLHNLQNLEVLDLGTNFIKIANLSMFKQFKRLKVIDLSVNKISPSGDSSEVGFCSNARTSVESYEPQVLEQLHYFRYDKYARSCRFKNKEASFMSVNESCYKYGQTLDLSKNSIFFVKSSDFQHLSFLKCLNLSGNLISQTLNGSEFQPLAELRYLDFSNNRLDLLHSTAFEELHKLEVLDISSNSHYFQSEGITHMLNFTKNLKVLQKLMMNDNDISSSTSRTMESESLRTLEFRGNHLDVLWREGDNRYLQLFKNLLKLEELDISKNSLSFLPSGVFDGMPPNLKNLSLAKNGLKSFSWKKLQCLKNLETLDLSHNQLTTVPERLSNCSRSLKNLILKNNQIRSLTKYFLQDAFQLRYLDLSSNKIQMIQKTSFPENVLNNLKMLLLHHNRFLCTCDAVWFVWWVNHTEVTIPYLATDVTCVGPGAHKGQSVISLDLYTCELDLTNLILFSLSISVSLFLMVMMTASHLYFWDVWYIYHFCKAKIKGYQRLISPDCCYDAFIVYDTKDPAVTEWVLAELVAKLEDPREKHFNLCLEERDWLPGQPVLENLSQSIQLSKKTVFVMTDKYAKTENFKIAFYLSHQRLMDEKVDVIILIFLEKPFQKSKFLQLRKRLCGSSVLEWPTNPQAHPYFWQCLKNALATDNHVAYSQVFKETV", "experiment": "TLR7 inhibition reporter assay (HEK-Blue SEAP)", "type": "cell-based", "details": "HEK-Blue cells overexpressing human TLR7, gardiquimod 7.5 μM stimulation, SEAP reporter"}, "MRL/lpr mice": {"test_system": "MRL/lpr mice", "experiment": "MRL/lpr model of SLE", "type": "in vivo, mouse", "details": "vs vehicle; for IL-10, percent reduction in disease severity / IL-12p40, percent reduction in disease severity: plasma", "method": "Male MRL/lpr mice of 12-14 weeks age were screened and randomized based on the titres of anti-dsDNA antibodies and urinary NGAL (Neutrophil Gelatinase Associated Lipocalin). Mice were treated orally, once daily for 8 weeks with vehicle or test compound. The effect of test compound on disease severity was assessed by measuring end points including proteinuria, urinary-NGAL, urinary TIMP1, blood urea nitrogen (BUN), anti-dsDNA Ab, anti-smRNP Ab titer, and plasma levels of IL10 and IL12p40. At the end of experiment, all mice were euthanized by CO2 asphyxiation and kidney samples were subjected for histology. To calculate the significance of test compound treated group vs. vehicle control group, one way ANOVA with Dunnett's test was performed. Percent reduction in disease severity was calculated for each parameter, for test compound treated group vs vehicle control group."}, "[1]": {"details": "0.1 mg/kg oral once daily 8 weeks"}, "[2]": {"details": "0.3 mg/kg oral once daily 8 weeks"}, "[3]": {"details": "1 mg/kg oral once daily 8 weeks"}, "[4]": {"details": "3 mg/kg oral once daily 8 weeks"}, "[5]": {"details": "10 mg/kg oral once daily 8 weeks"}}, "note": "Like-named read-outs stand apart in the source and are kept apart here."}
{"smiles": "Cc1c(-c2[nH]c3ccc(C4CCC(NCC5(S(C)(=O)=O)CC5)CC4)nc3c2C(C)C)cn2ncnc2c1C", "note": "(stereo not drawn) [Example 4, 4-(2-(7,8-dimethyl-[1,2,4]triazolo[1,5-a]pyridin-6-yl)-3-isopropyl-1H-pyrrolo[3,2-b]pyridin-5-yl)-N-((1-(methylsulfonyl)cyclopropyl)methyl)cyclohexan-1-amine]", "values": [{"measurement": "IC50", "setting": "human TLR9; HEK-Blue cells overexpressing human TLR9, ODN2006 5 nM stimulation, SEAP reporter", "value": 1070, "unit": "nM"}, {"measurement": "% inhibition of IFN-alpha", "setting": "TLR7; 0.0015 mg/kg oral", "value": 0, "unit": "%"}, {"measurement": "% inhibition of IL6", "setting": "TLR7; 0.0015 mg/kg oral", "value": 0, "unit": "%"}, {"measurement": "% inhibition of IFN-alpha", "setting": "TLR7; 0.003 mg/kg oral", "value": 33, "unit": "%"}, {"measurement": "% inhibition of IL6", "setting": "TLR7; 0.003 mg/kg oral", "value": 23, "unit": "%"}, {"measurement": "% inhibition of IFN-alpha", "setting": "TLR7; 0.015 mg/kg oral", "value": 74, "unit": "%"}, {"measurement": "% inhibition of IL6", "setting": "TLR7; 0.015 mg/kg oral", "value": 75, "unit": "%"}, {"measurement": "% inhibition of IFN-alpha", "setting": "TLR7; 0.075 mg/kg oral", "value": 93, "unit": "%"}, {"measurement": "% inhibition of IL6", "setting": "TLR7; 0.075 mg/kg oral", "value": 76, "unit": "%"}, {"measurement": "% inhibition of IFN-alpha", "setting": "TLR7; 0.15 mg/kg oral", "value": 99, "unit": "%"}, {"measurement": "% inhibition of IL6", "setting": "TLR7; 0.15 mg/kg oral", "value": 95, "unit": "%"}, {"measurement": "IC50", "setting": "human TLR8; HEK-Blue cells overexpressing human TLR8, R848 15.9 μM stimulation, SEAP reporter", "value": 0.71, "unit": "nM"}, {"measurement": "IC50", "setting": "human TLR7", "value": 0.6, "unit": "nM"}]}
{"smiles": "Cc1c(-c2[nH]c3ccc(C4CCC(N5CC6(C5)CS(=O)(=O)C6)CC4)nc3c2C(C)C)cn2ncnc2c1C", "note": "(stereo not drawn) [Example 438, 6-((1r,4r)-(4-(2-(7,8-dimethyl-[1,2,4]triazolo[1,5-a]pyridin-6-yl)-3-isopropyl-1H-pyrrolo[3,2-b]pyridin-5-yl)cyclohexyl)-2-thia-6-azaspiro[3.3]heptane 2,2-dioxide]", "values": [{"measurement": "IC50", "setting": "human TLR9; HEK-Blue cells overexpressing human TLR9, SEAP reporter, ODN2006 5 nM", "value": 1460, "unit": "nM"}, {"measurement": "% inhibition of IFN-alpha", "setting": "TLR7; 0.003 mg/kg oral", "value": 36, "unit": "%"}, {"measurement": "% inhibition of IL6", "setting": "TLR7; 0.003 mg/kg oral", "value": 25, "unit": "%"}, {"measurement": "% inhibition of IFN-alpha", "setting": "TLR7; 0.006 mg/kg oral", "value": 57, "unit": "%"}, {"measurement": "% inhibition of IL6", "setting": "TLR7; 0.006 mg/kg oral", "value": 41, "unit": "%"}, {"measurement": "% inhibition of IFN-alpha", "setting": "TLR7; 0.03 mg/kg oral", "value": 67, "unit": "%"}, {"measurement": "% inhibition of IL6", "setting": "TLR7; 0.03 mg/kg oral", "value": 56, "unit": "%"}, {"measurement": "% inhibition of IFN-alpha", "setting": "TLR7; 0.15 mg/kg oral", "value": 96, "unit": "%"}, {"measurement": "% inhibition of IL6", "setting": "TLR7; 0.15 mg/kg oral", "value": 78, "unit": "%"}, {"measurement": "% inhibition of IFN-alpha", "setting": "TLR7; 0.3 mg/kg oral", "value": 98, "unit": "%"}, {"measurement": "% inhibition of IL6", "setting": "TLR7; 0.3 mg/kg oral", "value": 82, "unit": "%"}, {"measurement": "IC50", "setting": "human TLR8; HEK-Blue cells overexpressing human TLR8, SEAP reporter, R848 15.9 μM", "value": 0.39, "unit": "nM"}, {"measurement": "IL-10, percent reduction in disease severity", "setting": "MRL/lpr mice; [1]", "value": 0, "unit": "%"}, {"measurement": "IL-12p40, percent reduction in disease severity", "setting": "MRL/lpr mice; [1]", "value": 16, "unit": "%"}, {"measurement": "Anti-SmRNP Ab titer, percent reduction in disease severity", "setting": "MRL/lpr mice; [1]", "value": 23, "unit": "%"}, {"measurement": "Anti-dsDNA Ab titer, percent reduction in disease severity", "setting": "MRL/lpr mice; [1]", "value": 0, "unit": "%"}, {"measurement": "Proteinuria, percent reduction in disease severity", "setting": "MRL/lpr mice; [1]", "value": 31, "unit": "%"}, {"measurement": "Urinary NGAL, percent reduction in disease severity", "setting": "MRL/lpr mice; [1]", "value": 34, "unit": "%"}, {"measurement": "Urinary TIMP1, percent reduction in disease severity", "setting": "MRL/lpr mice; [1]", "value": 0, "unit": "%"}, {"measurement": "IL-10, percent reduction in disease severity", "setting": "MRL/lpr mice; [2]", "value": 18, "unit": "%"}, {"measurement": "IL-12p40, percent reduction in disease severity", "setting": "MRL/lpr mice; [2]", "value": 33, "unit": "%"}, {"measurement": "Anti-SmRNP Ab titer, percent reduction in disease severity", "setting": "MRL/lpr mice; [2]", "value": 44, "unit": "%"}, {"measurement": "Anti-dsDNA Ab titer, percent reduction in disease severity", "setting": "MRL/lpr mice; [2]", "value": 28, "unit": "%"}, {"measurement": "Proteinuria, percent reduction in disease severity", "setting": "MRL/lpr mice; [2]", "value": 80, "unit": "%"}, {"measurement": "Urinary NGAL, percent reduction in disease severity", "setting": "MRL/lpr mice; [2]", "value": 58, "unit": "%"}, {"measurement": "Urinary TIMP1, percent reduction in disease severity", "setting": "MRL/lpr mice; [2]", "value": 42, "unit": "%"}, {"measurement": "IL-10, percent reduction in disease severity", "setting": "MRL/lpr mice; [3]", "value": 19, "unit": "%"}, {"measurement": "IL-12p40, percent reduction in disease severity", "setting": "MRL/lpr mice; [3]", "value": 26, "unit": "%"}, {"measurement": "Anti-SmRNP Ab titer, percent reduction in disease severity", "setting": "MRL/lpr mice; [3]", "value": 49, "unit": "%"}, {"measurement": "Anti-dsDNA Ab titer, percent reduction in disease severity", "setting": "MRL/lpr mice; [3]", "value": 39, "unit": "%"}, {"measurement": "Proteinuria, percent reduction in disease severity", "setting": "MRL/lpr mice; [3]", "value": 73, "unit": "%"}, {"measurement": "Urinary NGAL, percent reduction in disease severity", "setting": "MRL/lpr mice; [3]", "value": 63, "unit": "%"}, {"measurement": "Urinary TIMP1, percent reduction in disease severity", "setting": "MRL/lpr mice; [3]", "value": 54, "unit": "%"}, {"measurement": "IL-10, percent reduction in disease severity", "setting": "MRL/lpr mice; [4]", "value": 21, "unit": "%"}, {"measurement": "IL-12p40, percent reduction in disease severity", "setting": "MRL/lpr mice; [4]", "value": 28, "unit": "%"}, {"measurement": "Anti-SmRNP Ab titer, percent reduction in disease severity", "setting": "MRL/lpr mice; [4]", "value": 43, "unit": "%"}, {"measurement": "Anti-dsDNA Ab titer, percent reduction in disease severity", "setting": "MRL/lpr mice; [4]", "value": 44, "unit": "%"}, {"measurement": "Proteinuria, percent reduction in disease severity", "setting": "MRL/lpr mice; [4]", "value": 82, "unit": "%"}, {"measurement": "Urinary NGAL, percent reduction in disease severity", "setting": "MRL/lpr mice; [4]", "value": 67, "unit": "%"}, {"measurement": "Urinary TIMP1, percent reduction in disease severity", "setting": "MRL/lpr mice; [4]", "value": 56, "unit": "%"}, {"measurement": "IL-10, percent reduction in disease severity", "setting": "MRL/lpr mice; [5]", "value": 22, "unit": "%"}, {"measurement": "IL-12p40, percent reduction in disease severity", "setting": "MRL/lpr mice; [5]", "value": 41, "unit": "%"}, {"measurement": "Anti-SmRNP Ab titer, percent reduction in disease severity", "setting": "MRL/lpr mice; [5]", "value": 51, "unit": "%"}, {"measurement": "Anti-dsDNA Ab titer, percent reduction in disease severity", "setting": "MRL/lpr mice; [5]", "value": 37, "unit": "%"}, {"measurement": "Proteinuria, percent reduction in disease severity", "setting": "MRL/lpr mice; [5]", "value": 84, "unit": "%"}, {"measurement": "Urinary NGAL, percent reduction in disease severity", "setting": "MRL/lpr mice; [5]", "value": 67, "unit": "%"}, {"measurement": "Urinary TIMP1, percent reduction in disease severity", "setting": "MRL/lpr mice; [5]", "value": 79, "unit": "%"}]}
